For 26 compounds, IC50 results are on record in patent US20240425479A1, “HALO-SUBSTITUTED AMINO AZA-HETEROARYL COMPOUNDS AS INHIBITORS OF THE HAEMATOPOIETIC PROGENITOR KINASE 1 (HPK1)” (priority 2021, published 2024).

The target in this test is T1, Recombinant (1-346) HPK1 (h) (Homo sapiens, UniProt Q92918).
T1 construct: Recombinant (1-346) HPK1 (h) is incubated with 8 mM MOPS pH 7.0
T1 sequence (Q92918 1-346): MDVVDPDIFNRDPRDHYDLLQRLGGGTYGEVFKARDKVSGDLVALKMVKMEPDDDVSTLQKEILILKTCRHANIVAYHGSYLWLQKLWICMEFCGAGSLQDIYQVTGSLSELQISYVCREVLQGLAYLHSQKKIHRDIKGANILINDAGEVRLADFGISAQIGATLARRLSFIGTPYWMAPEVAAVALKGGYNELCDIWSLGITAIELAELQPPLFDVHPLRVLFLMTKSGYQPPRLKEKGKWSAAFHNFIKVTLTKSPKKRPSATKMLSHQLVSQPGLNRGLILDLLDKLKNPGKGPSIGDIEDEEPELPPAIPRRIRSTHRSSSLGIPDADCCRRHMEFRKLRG
In words: HPK1 human STE kinase enzymatic radiometric assay. In kind it is biochemical. Conditions: read-out: HPK1 IC50 nM Range. How it is done:
(a) HPK1 Human STE Kinase Enzymatic Radiometric Assay
A stock solution of 10 mM of test compound is prepared in DMSO. The compound plate was prepared by 3-fold and 9-point serial dilutions. Recombinant (1-346) HPK1 (h) is incubated with 8 mM MOPS pH 7.0, 0.2 mM EDTA, 0.33 mg/mL myelin basic protein, 10 mM MgAcetate and [gamma-33P]-ATP (specific activity and concentration as required). The reaction is initiated by the addition of the Mg/ATP mix. After incubation for 40 minutes at RT, the reaction is stopped by the addition of phosphoric acid to a concentration of 0.5%, 10 μL of the reaction is then spotted onto a P30 filtermat and washed four times for 4 minutes in 0.425% phosphoric acid and once in methanol prior to drying and scintillation counting. For more details of kinase assay protocols, see: Gao, Y. et. al.; Biochem J.451 (2): 313-328, 2013.
On to `CN(C)Cc1cc(-c2nc(-c3cc(F)c4c(c3)CCNC4=O)c(N)nc2F)ccc1OCC1CCOCC1` [Example I-180, 6-(3-amino-6-(3-((dimethylamino)methyl)-4-((tetrahydro-2H-pyran-4-yl)methoxy)phenyl)-5-fluoropyrazin-2-yl)-8-fluoro-3,4-dihydroisoquinolin-1(2H)-one], for which the IC50 was 0.1 to 10 nM.
In the case of `CN(C)Cc1cc(-c2nc(-c3cc4c(F)c[nH]c(=O)c4cc3F)c(N)nc2F)ccc1C1CCOCC1` [Example I-143, 6-(3-amino-6-(3-((dimethylamino)methyl)-4-(tetrahydro-2H-pyran-4-yl)phenyl)-5-fluoropyrazin-2-yl)-4,7-difluoroisoquinolin-1(2H)-one], the IC50 lay within 0.1 to 10 nM.
On to `CN(C)Cc1c(N2CCOCC2)ccc(-c2nc(-c3cc4c(cc3F)C(=O)NCC4)c(N)nc2F)c1F` [Example I-241, 6-(3-amino-6-(3-((dimethylamino)methyl)-2-fluoro-4-morpholinophenyl)-5-fluoropyrazin-2-yl)-7-fluoro-3,4-dihydroisoquinolin-1(2H)-one], for which the IC50 was 11 to 100 nM.
Under `CN(C)Cc1c(N2CCOCC2)ccc(-c2nc(-c3ccc4c(c3)CCNC4=O)c(N)nc2F)c1F` [Example I-240] stands 11 to 100 nM.
Take `Nc1nc(F)c(-c2ccc(N3CCN(CCCC(F)F)CC3)cc2)nc1-c1ccc2c(=O)[nH]ccc2c1` [Example I-70, 6-(3-amino-6-(4-(4-(4,4-difluorobutyl)piperazin-1-yl)phenyl)-5-fluoropyrazin-2-yl)isoquinolin-1(2H)-one]: the IC50 was in the range of 0.1 to 10 nM.
Under `Cc1nc2cc(-c3nc(-c4ccc(C5CCOCC5)c(CN5CCC[C@@H]5C)c4)c(F)nc3N)cc(F)c2c(=O)[nH]1` [Example I-219, (S)-7-(3-amino-5-fluoro-6-(3-((2-methylpyrrolidin-1-yl)methyl)-4-(tetrahydro-2H-pyran-4-yl)phenyl)pyrazin-2-yl)-5-fluoro-2-methylquinazolin-4(3H)-one] stands 101 to 1000 nM; under `CN(C)[C@@H]1COc2ccc(-c3nc(-c4cc5c(cc4F)C(=O)NCC5)c(N)nc3F)cc21` [Example I-255, (S)-6-(3-amino-6-(3-(dimethylamino)-2,3-dihydrobenzofuran-5-yl)-5-fluoropyrazin-2-yl)-7-fluoro-3,4-dihydroisoquinolin-1(2H)-one], 11 to 100 nM.
Under `CCN(C)Cc1cc(-c2nc(-c3ccc4c(c3)C(F)(F)CNC4=O)c(N)nc2F)ccc1C1=CCOCC1` [Example I-225, 6-(3-amino-6-(4-(3,6-dihydro-2H-pyran-4-yl)-3-((ethyl(methyl)amino)methyl)phenyl)-5-fluoropyrazin-2-yl)-4,4-difluoro-3,4-dihydroisoquinolin-1(2H)-one] stands 11 to 100 nM.
Under `Cc1c[nH]c(=O)c2ccc(-c3nc(-c4ccc(N5CCN(CCC(F)F)CC5)cc4)c(F)nc3N)cc12` [Example I-87, 6-(3-amino-6-(4-(4-(3,3-difluoropropyl)piperazin-1-yl)phenyl)-5-fluoropyrazin-2-yl)-4-methylisoquinolin-1(2H)-one] stands greater than 1000 nM; under `CC(C)(N)c1cc(-c2nc(-c3ccc4c(c3)CCNC4=O)c(N)nc2F)ccc1F` [Example I-271, 6-(3-amino-6-(3-(2-aminopropan-2-yl)-4-fluorophenyl)-5-fluoropyrazin-2-yl)-3,4-dihydroisoquinolin-1(2H)-one], 101 to 1000 nM; under `CCN(C)Cc1c(N2CCOCC2)ccc(-c2nc(-c3cc4c(cc3F)C(=O)NCC4)c(N)nc2F)c1F` [Example I-246, 6-(3-amino-6-(3-((ethyl(methyl)amino)methyl)-2-fluoro-4-morpholinophenyl)-5-fluoropyrazin-2-yl)-7-fluoro-3,4-dihydroisoquinolin-1(2H)-one], 11 to 100 nM.
Regarding `Cc1c[nH]c(=O)c2ccc(-c3nc(-c4ccc(O)c(CN(C)C)c4)c(F)nc3N)cc12` [Example I-306, 6-(3-amino-6-(3-((dimethylamino)methyl)-4-hydroxyphenyl)-5-fluoropyrazin-2-yl)-4-methylisoquinolin-1(2H)-one], the IC50 is 11 to 100 nM.
Under `C[C@@H]1CCCN1Cc1cc(-c2nc(-c3ccc4c(=O)[nH]cc(F)c4c3)c(N)nc2F)ccc1C1CCOCC1` [Example I-226, (R)-6-(3-amino-5-fluoro-6-(3-((2-tmethylpyrrolidin-1-yl)methyl)-4-(tetrahydro-2H-pyran-4-yl)phenyl)pyrazin-2-yl)-4-fluoroisoquinolin-1(2H)-one] stands 0.1 to 10 nM; under `CO[C@@H]1CCN(Cc2cc(-c3nc(-c4cc(F)c5c(c4)CCNC5=O)c(N)nc3F)ccc2N2CCOCC2)C1` [Example I-155, (R)-6-(3-amino-5-fluoro-6-(3-((3-methoxypyrrolidin-1-yl)methyl)-4-morpholinophenyl)pyrazin-2-yl)-8-fluoro-3,4-dihydroisoquinolin-1(2H)-one], 0.1 to 10 nM; under `Cc1cc2cc(-c3nc(-c4ccc(N5CCOCC5)c(CN(C)C)c4)c(F)nc3N)c(F)cc2c(=O)[nH]1` [Example I-183, 6-(3-amino-6-(3-((dimethylamino)methyl)-4-morpholinophenyl)-5-fluoropyrazin-2-yl)-7-fluoro-3-methylisoquinolin-1(2H)-one], 0.1 to 10 nM.
With `COC1CCN(Cc2cc(-c3nc(-c4cc5c(cc4F)C(=O)NCC5)c(N)nc3F)ccc2C2CCOCC2)CC1` [Example I-132, 6-(3-amino-5-fluoro-6-(3-((4-methoxypiperidin-1-yl)methyl)-4-(tetrahydro-2H-pyran-4-yl)phenyl)pyrazin-2-yl)-7-fluoro-3,4-dihydroisoquinolin-1(2H)-one], the IC50 is 11 to 100 nM.
Under `Nc1nc(F)c(-c2ccc(N3CCN(CCC(F)F)CC3)cc2)nc1-c1ccc2c(=O)[nH]ccc2c1` [Example I-86, 6-(3-amino-6-(4-(4-(3,3-difluoropropyl)piperazin-1-yl)phenyl)-5-fluoropyrazin-2-yl)isoquinolin-1(2H)-one] stands 11 to 100 nM.
Under `CCN(C)Cc1cc(-c2nc(-c3ccc4c(=O)[nH]cc(F)c4c3)c(N)nc2F)ccc1C1=CCOCC1` [Example I-282, 6-(3-amino-6-(4-(3,6-dihydro-2H-pyran-4-yl)-3-((ethyl(methyl)amino)methyl)phenyl)-5-fluoropyrazin-2-yl)-4-fluoroisoquinolin-1(2H)-one] stands 11 to 100 nM.
To `COc1ccc(-c2nc(-c3ccc4c(c3)CCNC4=O)c(N)nc2F)cc1C#N` [Example I-292, 5-(5-amino-3-fluoro-6-(1-oxo-1,2,3,4-tetrahydroisoquinolin-6-yl)pyrazin-2-yl)-2-methoxybenzonitrile] belongs 11 to 100 nM; to `CN(C)Cc1cc(-c2nc(-c3ccc4c(=O)[nH]cc(F)c4c3)c(N)nc2F)c(F)cc1N1CCOCC1` [Example I-259, 6-(3-amino-6-(5-((dimethylamino)methyl)-2-fluoro-4-morpholinophenyl)-5-fluoropyrazin-2-yl)-4-fluoroisoquinolin-1(2H)-one], 11 to 100 nM; to `CC(C)N1CCN(c2ccc(-c3nc(-c4ccc5c(c4)CCNC5=O)c(N)nc3F)cc2)[C@H](C)C1` [Example I-50, (R)-6-(3-amino-5-fluoro-6-(4-(4-isopropyl-2-methylpiperazin-1-yl)phenyl)pyrazin-2-yl)-3,4-dihydroisoquinolin-1(2H)-one], 0.1 to 10 nM.
On to `COC1CN(Cc2cc(-c3nc(-c4ccc5c(c4)CCNC5=O)c(N)nc3F)ccc2N2CCOCC2)C1` [Example I-188, 6-(3-amino-5-fluoro-6-(3-((3-methoxyazetidin-1-yl)methyl)-4-morpholinophenyl)pyrazin-2-yl)-3,4-dihydroisoquinolin-1(2H)-one], for which the IC50 was 0.1 to 10 nM.
Under `CO[C@H]1CCN(Cc2cc(-c3nc(-c4ccc5c(c4)CCNC5=O)c(N)nc3F)ccc2N2CCOCC2)C1` [Example I-156, (S)-6-(3-amino-5-fluoro-6-(3-((3-methoxypyrrolidin-1-yl)methyl)-4-morpholinophenyl)pyrazin-2-yl)-3,4-dihydroisoquinolin-1(2H)-one] stands 0.1 to 10 nM; under `CN(C)Cc1cc(-c2nc(-c3ccc4c(c3)CCNC4=O)c(N)nc2F)ccc1OCC1CCOCC1` [Example I-178, 6-(3-amino-6-(3-((dimethylamino)methyl)-4-((tetrahydro-2H-pyran-4-yl)methoxy)phenyl)-5-fluoropyrazin-2-yl)-3,4-dihydroisoquinolin-1(2H)-one], 0.1 to 10 nM.
Under `Nc1nc(F)c(-c2ccc(C3CCOCC3)c(CN3CCC3)c2)nc1-c1ccc2c(=O)[nH]cc(F)c2c1` [Example I-204, 6-(3-amino-6-(3-(azetidin-1-ylmethyl)-4-(tetrahydro-2H-pyran-4-yl)phenyl)-5-fluoropyrazin-2-yl)-4-fluoroisoquinolin-1(2H)-one] stands 0.1 to 10 nM.
In the case of `CCN(C)Cc1cc(-c2nc(-c3ccc4c(=O)[nH]cc(C)c4c3)c(N)nc2F)cc(C)c1OC` [Example I-299, 6-(3-amino-6-(3-((ethyl(methyl)amino)methyl)-4-methoxy-5-methylphenyl)-5-fluoropyrazin-2-yl)-4-methylisoquinolin-1(2H)-one], the IC50 is 11 to 100 nM.

The term IC50 denotes the midpoint of a concentration-inhibition curve.
